# Source: US9975903B2, “Condensed heterocyclic compound” (Takeda Pharmaceutical Company Limited, priority 2014, dated 2018)
# Where a name gives a salt, the structure may show the parent alone.
# Target: T1, Human recombinant enteropeptidase (Homo sapiens, UniProt P98073)
# T1 construct: purchased ITSI-Biosciences LLC #REN-260
# Assay: Human enteropeptidase inhibitory activity (Test Example 1)
# Type: biochemical
# Details: 3.3 μM test compound; inhibition rate from fluorescence intensity at 2 hours after the start of the reaction; read-out: 3.3 μM Inhibition
# Procedure, shortened: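 Recombinant human enteropeptidase in 50 mM Tricine pH 8.0, 0.01% Tween 20, 10 mM CaCl2, with a 5FAM/CPQ2-quenched peptide substrate (2.1 μM solution before mixing). Compound came from 1 mM DMSO stock diluted 100-fold in buffer. Fluorescence (ex 485/em 535 nm) at 2 h gave % inhibition versus no-compound and no-enzyme controls.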
# T1 sequence (P98073 whole entry): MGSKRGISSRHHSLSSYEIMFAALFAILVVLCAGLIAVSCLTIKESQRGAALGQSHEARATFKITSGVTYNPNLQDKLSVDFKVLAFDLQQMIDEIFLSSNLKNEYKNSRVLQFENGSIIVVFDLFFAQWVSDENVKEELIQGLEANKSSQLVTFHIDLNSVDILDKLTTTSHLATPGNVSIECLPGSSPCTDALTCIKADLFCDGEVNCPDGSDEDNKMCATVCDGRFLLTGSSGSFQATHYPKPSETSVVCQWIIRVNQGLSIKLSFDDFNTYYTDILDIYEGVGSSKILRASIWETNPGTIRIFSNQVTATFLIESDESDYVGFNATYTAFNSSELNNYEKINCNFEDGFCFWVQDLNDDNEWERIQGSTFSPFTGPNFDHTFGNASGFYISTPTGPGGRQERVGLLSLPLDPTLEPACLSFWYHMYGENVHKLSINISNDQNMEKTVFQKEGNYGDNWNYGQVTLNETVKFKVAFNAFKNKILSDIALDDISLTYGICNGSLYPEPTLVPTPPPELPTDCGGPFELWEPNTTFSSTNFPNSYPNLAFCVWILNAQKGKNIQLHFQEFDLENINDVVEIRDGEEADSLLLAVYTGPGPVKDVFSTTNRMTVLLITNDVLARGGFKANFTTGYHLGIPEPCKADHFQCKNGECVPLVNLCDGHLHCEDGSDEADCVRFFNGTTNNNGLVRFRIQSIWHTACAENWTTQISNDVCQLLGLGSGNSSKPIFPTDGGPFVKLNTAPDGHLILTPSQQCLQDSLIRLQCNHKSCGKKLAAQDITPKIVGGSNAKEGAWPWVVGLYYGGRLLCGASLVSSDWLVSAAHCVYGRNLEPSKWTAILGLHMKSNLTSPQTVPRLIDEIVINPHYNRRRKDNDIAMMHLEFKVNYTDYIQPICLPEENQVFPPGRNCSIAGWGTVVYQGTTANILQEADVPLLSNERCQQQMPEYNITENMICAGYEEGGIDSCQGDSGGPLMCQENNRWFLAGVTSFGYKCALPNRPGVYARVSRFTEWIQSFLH
row,inhibition at 3.3 µM [%],SMILES
1,100,"N=C(N)NCCC[C@H](NC(=O)c1cccc2c1OCCCc1cc(NC(=N)N)ccc1C(=O)O2)C(=O)O [Example 8, N^~2^~-((10-carbamimidamido-13-oxo-6,7,8,13-tetrahydro-dibenzo[b,f] [1,4]dioxecin-4-yl)carbonyl)-L-arginine]"
2,100,"N=C(N)Nc1ccc2c(c1)CCCOc1c(cccc1C(=O)N(CC(=O)O)CC(=O)N(CC(=O)O)Cc1ccccc1)OC2=O [Example 140, N-((10-Carbamimidamido-13-oxo-6,7,8,13-tetrahydrodibenzo[b,f][1,4]dioxecin-4-yl)carbonyl)-N-(carboxymethyl)glycyl-N-benzylglycine]"
3,101,"N=C(N)Nc1ccc2c(c1)CCOc1c(cccc1C(=O)NCCS(=O)(=O)O)OC2=O [Example 15, 2-(((9-carbamimidamido-6-oxo-11,12-dihydro-6H-dibenzo[b,f][1,4]dioxonin-1-yl)carbonyl)amino) ethanesulfonic acid]"
4,83,"N=C(N)Nc1ccc2c(c1)CCCOc1ccccc1OC2=O [Example 68, 1-(13-Oxo-6,7,8,13-tetrahydrodibenzo[b,f][1,4]dioxecin-10-yl)guanidine trifluoroacetate]"
5,101,"N=C(N)Nc1ccc2c(c1)CCCOc1c(cccc1C(=O)N[C@@H](Cc1ccccc1)C(=O)O)OC2=O [Example 87, N-((10-carbamimidamido-13-oxo-6,7,8,13-tetrahydro-dibenzo[b,f] [1,4]dioxecin-4-yl)carbonyl)-L-phenylalanine]"
6,100,"COC(=O)CN(C(=O)c1cccc2c1OCCCc1cc(NC(=N)N)ccc1C(=O)O2)[C@@H](CC(=O)O)C(=O)O [Example 139, N-((10-carbamimidamido-13-oxo-6,7,8,13-tetrahydro-dibenzo[b,f] [1,4]dioxecin-4-yl)carbonyl)-N-(2-methoxy-2-oxoethyl)-L-aspartic acid]"
7,101,"N=C(N)Nc1ccc2c(c1)CCCOc1c(CCC(=O)NC(CC(=O)O)CC(=O)O)cccc1OC2=O [Example 96, 3-((3-(10-carbamimidamido-13-oxo-6,7,8,13-tetrahydro-dibenzo[b,f] [1,4]dioxecin-4-yl)propanoyl)amino) pentanedioic acid]"
8,101,"N=C(N)Nc1ccc2c(c1)CCCOc1c(cccc1C(=O)Nc1ccc(S(=O)(=O)O)cc1)OC2=O [Example 5, N-(((10-carbamimidamido-13-oxo-6,7,8,13-tetrahydro-dibenzo[b,f] [1,4]dioxecin-4-yl)carbonyl)amino) benzenesulfonic acid]"
9,99,"N=C(N)Nc1ccc2c(c1)CCCOc1c(cccc1C(=O)N(CC(=O)O)CC(=O)N(CC(=O)O)CC(=O)O)OC2=O [Example 115, ((2-(Bis(carboxymethyl)amino)-2-oxoethyl) ((10-carbamimidamido-13-oxo-6,7,8,13-tetrahydrodibenzo[b,f][1,4]dioxecin-4-yl)carbonyl)amino)acetic acid]"
10,101,"N=C(N)Nc1ccc2c(c1)CCCOc1c(cccc1C(=O)N1CCC[C@H]1C(=O)O)OC2=O [Example 12, 1-((10-carbamimidamido-13-oxo-6,7,8,13-tetrahydro-dibenzo[b,f] [1,4]dioxecin-4-yl)carbonyl)-L-proline]"
11,100,"N=C(N)Nc1ccc2c(c1)CCCOc1c(cccc1C(=O)N1CCC[C@H]1C(=O)N[C@@H](CC(=O)O)C(=O)O)OC2=O [Example 99, 1-((10-Carbamimidamido-13-oxo-6,7,8,13-tetrahydrodibenzo[b,f][1,4]dioxecin-4-yl)carbonyl)-L-prolyl-L-aspartic acid]"
12,100,"N=C(N)Nc1ccc2c(c1)CCCOc1c(CCC(=O)N[C@@H](CCC(=O)O)C(=O)O)cccc1OC2=O [Example 93, N-(3-(10-carbamimidamido-13-oxo-6,7,8,13-tetrahydro-dibenzo[b,f] [1,4]dioxecin-4-yl)propanoyl)-L-glutamic acid]"
13,102,"N=C(N)Nc1ccc2c(c1)CCCOc1c(cccc1C(=O)NCP(=O)(O)O)OC2=O [Example 25, ((((10-carbamimidamido-13-oxo-6,7,8,13-tetrahydro-dibenzo[b,f] [1,4]dioxecin-4-yl)carbonyl)amino)methyl)phosphonic acid]"
14,101,"CN(C(=O)CCc1cccc2c1OCCCc1cc(NC(=N)N)ccc1C(=O)O2)[C@@H](CC(=O)O)C(=O)O [Example 102, N-(3-(10-carbamimidamido-13-oxo-6,7,8,13-tetrahydro-dibenzo[b,f] [1,4]dioxecin-4-yl)propanoyl)-N-methyl-L-aspartic acid]"

# The next lines start with the compound.
row,SMILES,inhibition at 3.3 µM [%]
1,"N=C(N)Nc1ccc2c(c1)CCCOc1c(ccc(CCC(=O)O)c1C(=O)N(CC(=O)O)CC(=O)O)OC2=O [Example 119, 3-(4-(Bis(carboxymethyl)carbamoyl)-10-carbamimidamido-13-oxo-6,7,8,13-tetrahydrodibenzo[b,f][1,4]dioxecin-3-yl)propanoic acid]",101
2,"N=C(N)Nc1ccc2c(c1)CCCOc1c(ccc(CCC(=O)O)c1C(=O)N(CC(=O)O)Cc1cccc(CN(CC(=O)O)CC(=O)O)c1)OC2=O [Example 148, 3-(4-((3-((bis(carboxymethyl)amino)methyl)-benzyl) (carboxymethyl)carbamoyl)-10-carbamimidamido-13-oxo-6,7,8,13-tetrahydro-dibenzo[b,f] [1,4]dioxecin-3-yl)propanoic acid]",101
3,"N=C(N)Nc1ccc2c(c1)CCc1cccc(CCC(=O)N[C@@H](CC(=O)O)C(=O)O)c1OC2=O [Example 54, N-(3-(9-carbamimidamido-6-oxo-11,12-dihydro-6H-dibenzo[b,f]oxocin-4-yl)propanoyl)-L-aspartic acid]",89
4,"N=C(N)Nc1ccc2c(c1)OCCCCOc1cc(CCC(=O)NC(CC(=O)O)C(=O)O)ccc1OC2=O (centres unmarked) [Example 46, N-(3-(3-carbamimidamido-16-oxo-6,7,8,9-tetrahydro-16H-dibenzo[b,f][1,4,8]trioxacyclo-dodecin-12-yl)propanoyl) aspartic acid]",100
5,"N=C(N)Nc1ccc2c(c1)CCCOc1c(cccc1C(=O)N(CC(=O)O)[C@@H](Cc1ccc(OCCNCC(=O)O)cc1)C(=O)O)OC2=O [Example 121, N-((10-Carbamimidamido-13-oxo-6,7,8,13-tetrahydrodibenzo[b,f][1,4]dioxecin-4-yl)carbonyl)-N-(carboxymethyl)-O-(2-((carboxymethyl)amino)ethyl)-L-tyrosine]",101
6,"N=C(N)Nc1ccc2c(c1)CCCOc1c(cccc1C(=O)N(Cc1ccc(C(=O)O)cc1)C(CC(=O)O)CC(=O)O)OC2=O [Example 147, 3-(((10-carbamimidamido-13-oxo-6,7,8,13-tetrahydro-dibenzo[b,f] [1,4]dioxecin-4-yl)carbonyl)(4-carboxybenzyl)amino)penta-nedioic acid]",100
7,"N=C(N)c1ccc2c(c1)CCCCc1cc(C(=O)N[C@@H](CC(=O)O)C(=O)O)ccc1C(=O)O2 [Example 69, N-((10-Carbamimidoyl-14-oxo-5,7,8,14-tetrahydro-6H-dibenzo[b,h]oxecin-3-yl)carbonyl)-L-aspartic acid trifluoroacetate]",100
8,"N=C(N)Nc1ccc2c(c1)CCCOc1c(ccc(CCC(=O)NC(CC(=O)O)CC(=O)O)c1C(=O)O)OC2=O [Example 131, 3-((3-(10-carbamimidamido-4-carboxy-13-oxo-6,7,8,13-tetrahydro-dibenzo[b,f] [1,4]dioxecin-3-yl)propanoyl)amino) pentanedioic acid]",100
9,"N=C(N)Nc1ccc2c(c1)CCCCc1cc3c(cc1OC2=O)OC[C@H]3CC(=O)NCCS(=O)(=O)O [Example 35, 2-((((10S)-3-carbamimidamido-15-oxo-5,7,8,10,11,15-hexahydro-6H-12,14-dioxabenzo[5,6]cyclodeca[1,2-f]inden-10-yl)acetyl)amino)ethane-sulfonic acid]",90
10,"N=C(N)Nc1ccc2c(c1)OCCOc1cc(CCC(=O)N[C@@H](CC(=O)O)C(=O)O)ccc1OC2=O [Example 53, N-(3-(3-carbamimidamido-14-oxo-6,7-dihydro-14H-dibenzo[b,h][1,4,7]trioxecin-10-yl)propanoyl) aspartic acid]",101
11,N=C(N)Nc1ccc2c(c1)CCCCc1c(cccc1C(=O)N(CC(=O)O)Cc1cccc(C(=O)O)c1)OC2=O [Example 128],100
12,"N=C(N)Nc1ccc2c(c1)CCCOc1c(cccc1C(=O)N(CC(=O)O)Cc1cccc(CN(CC(=O)O)CC(=O)O)c1)OC2=O [Example 116, N-(3-((Bis(carboxymethyl)amino)methyl)benzyl)-N-((10-carbamimidamido-13-oxo-6,7,8,13-tetrahydrodibenzo[b,f][1,4]dioxecin-4-yl)carbonyl)glycine]",99
13,"COc1ccc(C[C@H](NC(=O)c2c(CCC(=O)O)ccc3c2OCCCc2cc(NC(=N)N)ccc2C(=O)O3)C(=O)O)cc1 [Example 112, N-((10-carbamimidamido-3-(2-carboxyethyl)-13-oxo-6,7,8,13-tetrahydro-dibenzo[b,f] [1,4]dioxecin-4-yl)carbonyl)-O-methyl-L-tyrosine]",99
14,"N=C(N)Nc1ccc2c(c1)CCCOc1ccc(CCC(=O)N[C@@H](CC(=O)O)C(=O)O)cc1OC2=O [Example 78, N-(3-(10-carbamimidamido-13-oxo-6,7,8,13-tetrahydro-dibenzo[b,f] [1,4]dioxecin-2-yl)propanoyl) aspartic acid]",93
15,"N=C(N)Nc1ccc2c(c1)CCCCc1c(cc3c(c1C(=O)N[C@@H](CC(=O)O)C(=O)O)CCO3)OC2=O [Example 40, N-((3-Carbamimidamido-15-oxo-5,7,8,10,11,15-hexahydro-6H-12,14-dioxabenzo[5,6]cyclodeca[1,2-f]inden-9-yl)carbonyl)-L-aspartic acid]",100
